Results on five molecules are retold here after patent US20260217767A1, “NOVEL A4B7 THIOETHER PEPTIDE DIMER ANTAGONISTS” (Protagonist Therapeutics, Inc., priority 2014, published 2026).

Data set [1] addresses T1, α4β1 (Homo sapiens, UniProt P05556+P13612).
T1 construct: purchased R&D Systems 5668-A4
As to the kind of experiment: α4β1-VCAM Competition ELISA. Type of data set: binding. The note with it: thioether peptide dimers, Table 7; read-out: ELISA A4B1. As for the experimental part:
α4β1-VCAM Competition ELISA
A Nunc MaxiSorp plate was coated with rh VCAM-1/CD106 Fc chimera (R&D #862-VC) at 400 ng/well in 50 ul per well in 1×PBS and incubated overnight at 4° C. The solution was removed by shaking and then blocked with 250 ul of 1% BSA in 1×PBS per well. The wells were then incubated at room temperature for 1 hr with shaking. Each well was then washed once with wash buffer (50 mM Tris-HCl pH7.6, 100 mM NaCL, 1 mM MnCl2 or MgCl2, 0.05% Tween-20). 25 ul of serial dilutions of peptides starting at 200 μM in assay buffer (Assay buffer: 50 mM Tris-HCl pH7.6, 100 mM NaCl, 1 mM MnCl2 or MgCl2, 0.05% Tween-20) was added to each well. Additionally, 25 μl of α4β1 (R&D Systems #5668-A4) was added to each well at a fixed concentration of 120 nM. The final peptide and α4β1 concentrations were 100 μM and 60 nM, respectively. The plates were then incubated at 37° C. for 2 hr. The solution was then removed by shaking and each well was washed three times with wash buffer. 50 ul of 9F10 antibody at 4 ug/ml (purified mouse anti-human CD49d, BD Bioscience Cat #555502) was then added to each well, and the plate was incubated at room temperature for Ihr with shaking. The solution was again removed by shaking, and each well was washed three times with wash buffer. 50 μl of peroxidase-conjugated AffiniPure Goat anti-mouse IgG (Jackson immune research cat #115-035-003) diluted in 1:5000 in assay buffer was added to each well. The plate was incubated at room temperature for 30 min with shaking. Each well was then washed 3 times with wash buffer. 100 ul of TMB was then added to each well and closely observe during developing time. The reaction was stepped with 2N H2SO4 and absorbance was read at 450 nm.

A short description of data set [2]: Simulated Intestinal Fluid (SIF) Stability Assay. To be noted: pig, simulated intestinal fluid (SIF) with 1% porcine pancreatin, pH 6.5, porcine pancreatin, 37° C.; dimers, Table 7. Format: in vitro ADME. The procedure, abridged: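 Peptide at 22 μM final was incubated at 37° C in blank FaSSIF pH 6.5 with 1% porcine pancreatin. Timed samples were quenched in acetonitrile/methanol/formic acid with internal standard and analysed by LC-MS/MS. Half-lives came from first-order exponential fits of percent remaining.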

For data set [3], the target named is Jurkat E6.1 cells (Homo sapiens, UniProt P05556+P13612). As to the kind of experiment: α4β1-VCAM Cell Adhesion Assay. To be noted: thioether peptide dimers, Table 7; read-out: Cell Adhesion A4B1. Format: cell-based. The procedure: α4β1-VCAM Cell Adhesion Assay
Jurkat E6.1 cells (Sigma #88042803) were cultured in RPMI 1640 HEPES medium (Invitrogen #22400-089) supplemented with 10% serum (Fetal Bovine Serum, Invitrogen #16140-071), 1 mM sodium pyruvate (Invitrogen #11360-070), 2 mM L-glutamine (Invitrogen #25030-081) and Penicillin-Streptomycin (Invitrogen #15140-122) at 100 units of penicillin and 100 μg of streptomycin per ml. The cells were washed two times in DMEM medium (ATCC #30-2002) supplemented with 0.1% BSA, 10 mM HEPES pH 7 and 1 mM MnCl2. The cells were re-suspended in supplemented DMEM medium at a density of 4×10^6 cells/ml.
A Nunc MaxiSorp plate was coated with rh VCAM-1/CD106 Fc chimera (R&D #862-VC) at 400 ng per well in 50 μl per well in 1×PBS and incubated at 4° C. overnight. The solution was then removed by shaking, blocked with 250 μl per well PBS containing 1% BSA, and incubated at 37° C. for 1 hr. The solution was removed by shaking. Peptides were diluted by serial dilution in a final volume of 50 μl per well (2× concentration). To each well, 50 μl of cells (200,000 cells) were added and the plate was incubated at 37° C., 5% CO2 for 30-45 min to allow cell adhesion. The wells were washed manually three times (100 μl per wash) with supplemented DMEM. After the final wash, 100 μl/well of supplemented DMEM and 10 ul/well of MTT reagent (ATTC cat #30-1010K) were added. The plate was incubated at 37° C., 5% CO2 for 2-3 hrs until a purple precipitate is visible. 100 ul of Detergent Reagent (ATTC cat #30-1010K) is added to each well. The plate was covered from the light, wrapped in Parafilm to prevent evaporation, and left overnight at room temperature in the dark. The plate was shaken for 5 min and the absorbance at 570 nm is measured. To calculate the dose response, the absorbance value of control wells not containing cells was subtracted from each test well.

Data set [4] deals with T2, RPMI 8866 cells (Homo sapiens, UniProt P13612+P26010).
T2 sequence (P13612 34-1032): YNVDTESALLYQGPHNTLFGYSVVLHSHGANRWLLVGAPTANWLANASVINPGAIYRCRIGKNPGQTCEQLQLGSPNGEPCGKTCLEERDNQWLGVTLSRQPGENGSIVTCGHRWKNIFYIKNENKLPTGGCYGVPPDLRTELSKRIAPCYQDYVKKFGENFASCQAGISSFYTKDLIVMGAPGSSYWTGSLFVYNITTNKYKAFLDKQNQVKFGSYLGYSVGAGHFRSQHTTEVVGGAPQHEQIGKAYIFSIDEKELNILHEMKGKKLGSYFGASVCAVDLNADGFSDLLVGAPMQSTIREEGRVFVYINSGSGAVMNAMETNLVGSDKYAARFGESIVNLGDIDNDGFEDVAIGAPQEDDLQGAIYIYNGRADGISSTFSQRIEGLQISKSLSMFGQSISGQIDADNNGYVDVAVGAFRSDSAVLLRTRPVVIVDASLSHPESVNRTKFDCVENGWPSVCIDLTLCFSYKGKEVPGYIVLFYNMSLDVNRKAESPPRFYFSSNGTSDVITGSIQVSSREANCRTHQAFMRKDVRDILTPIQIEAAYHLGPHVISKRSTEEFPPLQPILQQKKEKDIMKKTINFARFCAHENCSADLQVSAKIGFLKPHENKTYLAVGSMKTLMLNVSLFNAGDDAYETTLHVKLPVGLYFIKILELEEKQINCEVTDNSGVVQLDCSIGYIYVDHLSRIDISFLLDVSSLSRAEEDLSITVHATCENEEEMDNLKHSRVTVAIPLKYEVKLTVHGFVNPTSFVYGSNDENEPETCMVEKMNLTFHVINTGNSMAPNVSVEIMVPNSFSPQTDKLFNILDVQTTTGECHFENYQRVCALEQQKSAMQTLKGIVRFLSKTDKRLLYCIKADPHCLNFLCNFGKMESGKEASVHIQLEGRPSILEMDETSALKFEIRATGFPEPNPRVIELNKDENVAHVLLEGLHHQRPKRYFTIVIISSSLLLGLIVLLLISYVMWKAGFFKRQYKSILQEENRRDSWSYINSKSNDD
T2 sequence (P26010 20-798): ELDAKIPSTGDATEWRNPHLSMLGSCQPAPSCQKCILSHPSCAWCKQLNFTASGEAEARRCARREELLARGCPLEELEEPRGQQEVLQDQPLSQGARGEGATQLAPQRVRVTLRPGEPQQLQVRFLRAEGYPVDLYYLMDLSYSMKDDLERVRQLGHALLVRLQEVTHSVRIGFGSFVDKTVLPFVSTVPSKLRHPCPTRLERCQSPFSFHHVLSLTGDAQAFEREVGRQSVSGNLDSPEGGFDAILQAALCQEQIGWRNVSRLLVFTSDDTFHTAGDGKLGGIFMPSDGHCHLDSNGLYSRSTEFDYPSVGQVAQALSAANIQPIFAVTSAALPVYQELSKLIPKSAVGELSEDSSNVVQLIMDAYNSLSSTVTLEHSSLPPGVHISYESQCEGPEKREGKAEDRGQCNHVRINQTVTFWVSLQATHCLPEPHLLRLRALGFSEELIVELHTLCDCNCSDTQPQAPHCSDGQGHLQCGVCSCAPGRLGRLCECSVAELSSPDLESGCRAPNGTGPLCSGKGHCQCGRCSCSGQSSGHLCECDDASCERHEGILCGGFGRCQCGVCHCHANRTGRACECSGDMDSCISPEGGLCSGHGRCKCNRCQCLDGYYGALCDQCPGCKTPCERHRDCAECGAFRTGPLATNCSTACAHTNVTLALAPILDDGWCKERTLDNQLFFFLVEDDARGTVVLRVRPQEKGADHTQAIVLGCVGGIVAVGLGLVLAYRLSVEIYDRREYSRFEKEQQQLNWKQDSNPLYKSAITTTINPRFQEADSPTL
As to the kind of experiment: α4β7-MAdCAM Cell Adhesion Assay. Type of data set: cell-based. The note with it: thioether peptide dimers, Table 7; read-out: Cell-Adhesion A4B7. The procedure, abridged: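 RPMI 8866 cells (200,000/well) in DMEM with 1 mM MnCl2 and 0.1% BSA were allowed to adhere 30-45 min at 37° C to plates coated with rh MAdCAM-1/Fc (200 ng/well) in presence of serially diluted peptide. After washing, bound cells quantified by MTT, absorbance 570 nm, cell-free background subtracted.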

The structures appear in SMILES notation. Where a SMILES comes first, the peptide text is derived from it.

Sequence of Jurkat E6.1 cells (P05556 21-798, one chain of several): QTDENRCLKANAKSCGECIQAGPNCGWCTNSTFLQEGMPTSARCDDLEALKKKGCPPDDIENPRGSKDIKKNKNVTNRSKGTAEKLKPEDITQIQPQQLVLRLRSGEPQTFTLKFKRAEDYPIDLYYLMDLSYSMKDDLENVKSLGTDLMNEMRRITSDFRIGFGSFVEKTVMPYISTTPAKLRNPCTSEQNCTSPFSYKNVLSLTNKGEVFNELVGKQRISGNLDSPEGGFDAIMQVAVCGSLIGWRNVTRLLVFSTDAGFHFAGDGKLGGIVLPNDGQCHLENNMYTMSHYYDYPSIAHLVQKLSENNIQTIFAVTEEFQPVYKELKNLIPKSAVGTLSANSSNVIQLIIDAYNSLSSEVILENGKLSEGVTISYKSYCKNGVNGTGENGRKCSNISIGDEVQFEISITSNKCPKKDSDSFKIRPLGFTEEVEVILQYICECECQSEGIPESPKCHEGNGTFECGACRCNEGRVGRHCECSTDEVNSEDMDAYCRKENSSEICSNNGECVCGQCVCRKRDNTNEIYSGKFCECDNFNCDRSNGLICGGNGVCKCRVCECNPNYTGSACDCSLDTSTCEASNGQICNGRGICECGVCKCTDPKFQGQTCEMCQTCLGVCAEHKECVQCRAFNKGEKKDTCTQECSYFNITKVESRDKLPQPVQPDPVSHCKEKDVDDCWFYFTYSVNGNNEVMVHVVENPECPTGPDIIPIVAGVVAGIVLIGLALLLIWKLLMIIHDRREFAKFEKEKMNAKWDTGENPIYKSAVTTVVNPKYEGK
T1 sequence (P05556 21-728 limits assumed, one chain of several): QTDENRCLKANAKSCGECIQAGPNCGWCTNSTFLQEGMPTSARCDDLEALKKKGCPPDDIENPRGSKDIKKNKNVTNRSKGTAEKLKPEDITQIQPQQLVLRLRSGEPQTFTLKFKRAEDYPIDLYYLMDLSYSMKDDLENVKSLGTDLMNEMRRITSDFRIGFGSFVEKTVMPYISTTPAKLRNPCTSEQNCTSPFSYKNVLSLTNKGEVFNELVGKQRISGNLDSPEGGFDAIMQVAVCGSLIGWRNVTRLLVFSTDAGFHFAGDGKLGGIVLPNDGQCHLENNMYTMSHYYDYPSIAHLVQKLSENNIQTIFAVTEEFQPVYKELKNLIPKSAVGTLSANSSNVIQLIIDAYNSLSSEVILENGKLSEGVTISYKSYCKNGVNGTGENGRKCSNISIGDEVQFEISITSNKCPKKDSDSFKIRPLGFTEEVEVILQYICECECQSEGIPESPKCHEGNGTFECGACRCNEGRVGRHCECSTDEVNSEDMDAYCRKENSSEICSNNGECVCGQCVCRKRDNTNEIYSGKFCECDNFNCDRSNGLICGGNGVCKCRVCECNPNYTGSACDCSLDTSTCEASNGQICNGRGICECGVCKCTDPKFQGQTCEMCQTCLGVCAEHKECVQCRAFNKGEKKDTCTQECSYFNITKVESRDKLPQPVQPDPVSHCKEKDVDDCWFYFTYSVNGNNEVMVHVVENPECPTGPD

Consider `CC(C)C[C@@H]1NC(=O)[C@H]([C@@H](C)O)NC(=O)[C@H](CC(=O)O)NC(=O)[C@H](CO)NC(=O)[C@H](CCCNC(=N)N)N(C)C(=O)c2ccccc2CSC(C)(C)[C@@H](C(=O)N[C@@H](Cc2c[nH]c3ccccc23)C(=O)N[C@@H](CCC(=O)O)CC(=O)N[C@H](CCCCN)C(N)=O)NC1=O` [compound 151] (HELM PEPTIDE1{[meR].S.D.T.L.[Pen].W.[O=C(O)CC[C@@H](CC(=O)[*:2])N[*:1]].[dK].[am]}|CHEM1{[O=C(c1ccccc1C[*:2])[*:1]]}$PEPTIDE1,CHEM1,1:R1-1:R1|PEPTIDE1,CHEM1,6:R3-1:R2$$$V2.0), for which, in data set [1], the IC50 was in the range of 25 to 100 nM. The molecule further registered a half-life at 22 μM in data set [2] above 3 h.

`CC(C)C[C@@H]1NC(=O)[C@H]([C@@H](C)O)NC(=O)[C@H](CC(=O)O)NC(=O)[C@H](CO)NC(=O)[C@H](CCCNC(=N)N)N(C)C(=O)c2ccccc2CSC(C)(C)[C@@H](C(=O)N[C@@H](Cc2ccc3ccccc3c2)C(=O)N[C@@H](CCC(=O)O)CC(=O)N[C@H](CCCCN)C(N)=O)NC1=O` [compound 161]: the IC50 is 25 to 100 nM in data set [1] and above 100000 nM in data set [3]. The same molecule yielded a half-life at 22 μM in data set [2] above 3 h.

Take `CC(C)C[C@@H]1NC(=O)[C@H]([C@@H](C)O)NC(=O)[C@H](CC(=O)O)NC(=O)[C@H](CO)NC(=O)[C@H](CCCNC(=N)N)N(C)C(=O)c2ccccc2CSC(C)(C)[C@@H](C(=O)N[C@@H](Cc2ccc(O)cc2)C(=O)N[C@@H](CCC(=O)O)C(=O)N[C@H](CCCCN)C(N)=O)NC1=O` [compound 168] (HELM PEPTIDE1{[meR].S.D.T.L.[Pen].Y.E.[dK].[am]}|CHEM1{[O=C(c1ccccc1C[*:2])[*:1]]}$PEPTIDE1,CHEM1,1:R1-1:R1|PEPTIDE1,CHEM1,6:R3-1:R2$$$V2.0): the IC50 in data set [1] is 25 to 100 nM; in data set [3], above 100000 nM.

In the case of `CC(C)C[C@@H]1NC(=O)[C@H]([C@@H](C)O)NC(=O)[C@H](CC(=O)O)NC(=O)[C@H](CO)NC(=O)[C@H](CCCNC(=N)N)N(C)C(=O)c2ccccc2CSC(C)(C)[C@@H](C(=O)N[C@@H](Cc2c[nH]c3ccccc23)C(=O)N[C@H](CCC(=O)O)C(=O)N[C@@H](CO)C(=O)N[C@H](CCCCN)C(N)=O)NC1=O` [compound 191] (HELM PEPTIDE1{[meR].S.D.T.L.[Pen].W.[dE].S.[dK].[am]}|CHEM1{[O=C(c1ccccc1C[*:2])[*:1]]}$PEPTIDE1,CHEM1,1:R1-1:R1|PEPTIDE1,CHEM1,6:R3-1:R2$$$V2.0), the IC50 is below 25 nM in data set [4] and above 100000 nM in data set [3].

For the molecule `CC(C)C[C@@H]1NC(=O)[C@H]([C@@H](C)O)NC(=O)[C@H](CC(=O)O)NC(=O)[C@H](CO)NC(=O)[C@H](CCCNC(=N)N)N(C)C(=O)c2ccccc2CSC(C)(C)[C@@H](C(=O)N[C@@H](Cc2c[nH]c3ccccc23)C(=O)N[C@H](CCC(=O)O)C(=O)N[C@@H](CCC(=O)O)C(=O)N[C@H](CCCCN)C(N)=O)NC1=O` [compound 194] (HELM PEPTIDE1{[meR].S.D.T.L.[Pen].W.[dE].E.[dK].[am]}|CHEM1{[O=C(c1ccccc1C[*:2])[*:1]]}$PEPTIDE1,CHEM1,1:R1-1:R1|PEPTIDE1,CHEM1,6:R3-1:R2$$$V2.0), the IC50 was 100 to 1000 nM in data set [1] and below 25 nM in data set [4].

Broadly, the half-life is the time in which the quantity being followed falls by half. A high value points to slow decline.
